Consider 28 compounds from patent publication US20250049776A1, “AUTOPHAGY INDUCING COMPOUNDS AND USES THEREOF, IN PARTICULAR FOR A SYSTEMIC TREATMENT OF DISEASES AND CONDITIONS” (Samsara Therapeutics Inc., priority 2021, published 2025).

This assay has as its system Human osteosarcoma U20S cells. Put plainly: Assay to measure lysosome and autolysosome formation (acidic vesicle formation, LysoView/LysoTracker staining). In kind it is cell-based. Conditions: for activation at 0.8 µM: Homo sapiens. Here is the method: Lysosomes play a fundamental role in the autophagic pathway by fusing with autophagosomes and creating ‘autolysosomes’ in order to digest their contents. Stimulation of lysosome and autolysosome formation by a compound is indicative of a stimulation of autophagy. The ability of compounds to stimulate lysosome and autolysosome formation, and thus autophagy, in live cells was assessed via fluorescent microscopy using various fluorescent stains for labelling and tracking acidic organelles (including lysosomes and autolysosomes) such as: LysoView™ 650 (70059 and 70059-T, Biotium), LysoViewTM633 (70058 and 70058-T, Biotium) and LysoTracker™ Deep Red (L12492, ThermoFisher Scientific). The cellular phenotype was quantitatively assessed for the induction of acidic vesicle formation and compared to a non-treated control, thus providing a measure of the ability of the compound under investigation to stimulate autophagy.
Representative procedure using LysoView™633 dye or LysoTracker™ Deep Red dye: Human osteosarcoma U20S cells (40,000 cells/well) were seeded in a 24 well glass bottom plate (Sensoplate, Greiner Bio-One) and were incubated overnight in a humidified atmosphere at 37° C. and 5% CO2. Cells were grown in DMEM (Gibco) supplemented with 10% Fetal Bovine Serum (FBS) and 100 units/ml penicillin and 100 μg/ml streptomycin (Invitrogen). After the attachment period, cells were treated with different compounds of interest (at various concentrations in DMSO) or DMSO (non-treated control) in cell culture medium and were incubated for 24 hours. Compound-containing medium was removed and cells were incubated with pre-warmed cell culture medium containing 1× LysoView™ 633 (70058 and 70058-T, Biotium) or 50 nM LysoTracker™ Deep Red (L12492, ThermoFisher Scientific) for 45 minutes at 37° C. Finally, cell nuclei were stained for 10 minutes using Hoechst 33342 (1 μg/mL) and then the medium was replaced with fresh medium. The 24 well plate was then fitted into a heated stage on the microscope and cells maintained at 37° C. Images were captured using appropriate filter set for Cy5 and DAPI detection with the EVOS M7000 Microscope (ThermoFisher Scientific). The cellular phenotype was visually assessed for the induction of acidic vesicle formation relative to the non-treated control; multiple images were acquired and analyzed using ImageJ or Cell Profiler.

[1] abbreviates: U2OS cells, concentration of 0.8 μM, read-out: Activity (percentage increase in acidic vesicle formation over the DMSO-treated control), Table 2.
[2] abbreviates: U2OS cells, concentration of 0.8 μM, read-out: Activity (percentage increase in acidic vesicle formation), Table 2a Preferred compounds.

Like-named read-outs stand apart in the source and are kept apart here.

For `Cc1ccccc1-n1cc(-c2nc(C(=O)N(C(C)C)C3CCNCC3)cs2)cn1` [Compound 84, 2-[1-(2-methylphenyl)-1H-pyrazol-4-yl]-N-(piperidin-4-yl)-N-(propan-2-yl)-1,3-thiazole-4-carboxamide], the activation at 0.8 µM under setting [1] was 10 to 30%.
The same measure, in the same setting: the same measure for `CCCN(C(=O)c1csc(-c2cnn(-c3ccccn3)c2)n1)[C@H]1CCNC1` [Compound 43, N-propyl-2-[1-(pyridin-2-yl)-1H-pyrazol-4-yl]-N-[(3S)-pyrrolidin-3-yl]-1,3-thiazole-4-carboxamide]: 10 to 30%.
Regarding `CCCN(C(=O)c1csc(-c2cnn(-c3cccc(C(F)(F)F)c3)c2)n1)[C@H]1CCNC1` [Compound 48, N-propyl-N-[(3S)-pyrrolidin-3-yl]-2-{1-[3-(trifluoromethyl)phenyl]-1H-pyrazol-4-yl}-1,3-thiazole-4-carboxamide], the activation at 0.8 µM reads like this: under setting [1], 50 to 100%; under setting [2], 50 to 100%.
On to `CCCN(C(=O)c1cc(-c2cnn(-c3ccccc3)c2)cs1)[C@H]1CCNC1` [Compound 59, 4-(1-phenyl-1H-pyrazol-4-yl)-N-propyl-N-[(3S)-pyrrolidin-3-yl]thiophene-2-carboxamide], for which the activation at 0.8 µM under setting [1] fell in the range of 10 to 30%.
The same measure, in the same setting: the same measure for `CCCN(C(=O)c1csc(-c2ccc(-c3ccccc3)s2)n1)[C@@H]1CCNC1` [Compound 70, 2-(5-phenylthiophen-2-yl)-N-propyl-N-[(3R)-pyrrolidin-3-yl]-1,3-thiazole-4-carboxamide]: 30 to 50%; for `O=C(c1csc(-c2cnn(-c3ccccc3)c2)n1)N1C[C@H]2C[C@@H]1CN2` [Compound 326, (1R,4R)-2-[2-(1-phenyl-1H-pyrazol-4-yl)-1,3-thiazole-4-carbonyl]-2,5-diazabicyclo[2.2.1]heptane]: 50 to 100%.
As to `CCCN(C(=O)c1csc(-c2cnn(-c3ccccc3C(F)(F)F)c2)n1)[C@H]1CCNC1` [Compound 82, N-propyl-N-[(3S)-pyrrolidin-3-yl]-2-{1-[2-(trifluoromethyl)phenyl]-1H-pyrazol-4-yl}-1,3-thiazole-4-carboxamide], under setting [1], the activation at 0.8 µM is 30 to 50%.
On the same count and under the same terms, the same measure for `CC(C)N(C(=O)c1csc(-c2cnn(-c3ccccn3)c2)n1)C1CCNCC1` [Compound 307, N-(piperidin-4-yl)-N-(propan-2-yl)-2-[1-(pyridin-2-yl)-1H-pyrazol-4-yl]-1,3-thiazole-4-carboxamide]: 50 to 100%.
Consider `CCCN(C(=O)c1csc(-c2cnn(-c3ccccc3)c2)c1)[C@@H]1CCNC1` [Compound 36, 5-(1-phenyl-1H-pyrazol-4-yl)-N-propyl-N-[(3R)-pyrrolidin-3-yl]thiophene-3-carboxamide], for which the activation at 0.8 µM under setting [1] fell in the range of 10 to 30%.
The same measure, in the same setting: the same measure for `CCCN(C(=O)c1csc(-c2cnn(-c3cccc(F)c3)c2)n1)[C@H]1CCNC1` [Compound 52, 2-[1-(3-fluorophenyl)-1H-pyrazol-4-yl]-N-propyl-N-[(3S)-pyrrolidin-3-yl]-1,3-thiazole-4-carboxamide]: 10 to 30%.
Take `CCCN(C(=O)c1ccc(-c2cnn(-c3ccccc3)c2)[nH]1)[C@@H]1CCNC1` [Compound 94, 5-(1-phenyl-1H-pyrazol-4-yl)-N-propyl-N-[(3R)-pyrrolidin-3-yl]-1H-pyrrole-2-carboxamide]: the activation at 0.8 µM reads like this: under setting [1], above 100%; under setting [2], 50 to 100%. Further, the “Activity (percentage increase in acidic vesicle formation), Table 2b More preferred compounds” value (U2OS cells, concentration of 0.8 μM) is listed as “++++ (a percentage increase in acidic vesicle of greater than 100% over the DMSO-treated control)”.
As to `CCCN(C(=O)c1csc(-c2cnn(-c3cccc(C)c3)c2)n1)[C@H]1CCNC1` [Compound 28, 2-[1-(3-methylphenyl)-1H-pyrazol-4-yl]-N-propyl-N-[(3S)-pyrrolidin-3-yl]-1,3-thiazole-4-carboxamide], the activation at 0.8 µM under setting [1] lay in the range of 10 to 30%.
On the same count and under the same terms, then `CC(C)N(C(=O)c1csc(-c2cnn(-c3ccccc3Cl)c2)n1)C1CCNCC1` [Compound 66, 2-[1-(2-chlorophenyl)-1H-pyrazol-4-yl]-N-(piperidin-4-yl)-N-(propan-2-yl)-1,3-thiazole-4-carboxamide], with 10 to 30%; and `NCCNC(=O)c1csc(-c2cnn(-c3ccccc3)c2)n1` [Compound 162, N-(2-aminoethyl)-2-(1-phenyl-1H-pyrazol-4-yl)-1,3-thiazole-4-carboxamide], with 10 to 30%; and `O=C(NCC1CCNCC1)c1ccc(-c2cnn(-c3ccccc3)c2)o1` [Compound 100, 5-(1-phenyl-1H-pyrazol-4-yl)-N-[(piperidin-4-yl)methyl]furan-2-carboxamide], with 30 to 50%.
On the same count and under the same terms, the same measure for `CC1CCCN(C(=O)c2csc(-c3cnn(-c4ccccc4)c3)n2)C1CN` (centres unmarked) [Compound 153, 1-{3-methyl-1-[2-(1-phenyl-1H-pyrazol-4-yl)-1,3-thiazole-4-carbonyl]piperidin-2-yl}methanamine]: 10 to 30%.
Regarding `NCCOCCNC(=O)c1cc(-c2cnn(-c3ccccc3)c2)cs1` [Compound 110, N-[2-(2-aminoethoxy)ethyl]-4-(1-phenyl-1H-pyrazol-4-yl)thiophene-2-carboxamide], the activation at 0.8 µM was in the range of 50 to 100% under setting [1] and 50 to 100% under setting [2].
As to `O=C(NC[C@@H]1CNCCO1)c1csc(-c2cnn(-c3ccccc3)c2)n1` [Compound 107, N-{[(2S)-morpholin-2-yl]methyl}-2-(1-phenyl-1H-pyrazol-4-yl)-1,3-thiazole-4-carboxamide], under setting [1], the activation at 0.8 µM was 10 to 30%.
With `COc1cccc(-n2cc(-c3nc(C(=O)N4CCC[C@@H]4CN)cs3)cn2)c1` [Compound 50, 1-[(2R)-1-{2-[1-(3-methoxyphenyl)-1H-pyrazol-4-yl]-1,3-thiazole-4-carbonyl}pyrrolidin-2-yl]methanamine], the activation at 0.8 µM lay in the range of 50 to 100% under setting [1] and 50 to 100% under setting [2].
Regarding `CCCN(C(=O)c1csc(-c2cnn(-c3cccc(F)c3)c2)n1)[C@@H]1CCNC1` [Compound 53, 2-[1-(3-fluorophenyl)-1H-pyrazol-4-yl]-N-propyl-N-[(3R)-pyrrolidin-3-yl]-1,3-thiazole-4-carboxamide], the activation at 0.8 µM under setting [1] fell in the range of 10 to 30%.
On to `CCCN(C(=O)c1csc(-c2cnn(-c3cccc(C(F)(F)F)c3)c2)n1)[C@@H]1CCNC1` [Compound 49, N-propyl-N-[(3R)-pyrrolidin-3-yl]-2-{1-[3-(trifluoromethyl)phenyl]-1H-pyrazol-4-yl}-1,3-thiazole-4-carboxamide], for which the activation at 0.8 µM under setting [1] fell in the range of 30 to 50%.
For the compound `CCCN(C(=O)c1cc(-c2cnn(-c3ccccc3)c2)cs1)C1CCNC1` (centres unmarked) [Compound 141, 4-(1-phenyl-1H-pyrazol-4-yl)-N-propyl-N-(pyrrolidin-3-yl)thiophene-2-carboxamide], the activation at 0.8 µM was 50 to 100% under setting [1] and 50 to 100% under setting [2].
Consider `CCCN(C(=O)c1csc(-c2cnn(-c3ccc(F)cc3)c2)n1)[C@@H]1CCNC1` [Compound 54, 2-[1-(4-fluorophenyl)-1H-pyrazol-4-yl]-N-propyl-N-[(3R)-pyrrolidin-3-yl]-1,3-thiazole-4-carboxamide], for which the activation at 0.8 µM under setting [1] was 10 to 30%.
Turning to `O=C(NCC1CCNCC1)c1csc(-c2cnn(-c3ccccc3)c2)n1` [Compound 177, 2-(1-phenyl-1H-pyrazol-4-yl)-N-[(piperidin-4-yl)methyl]-1,3-thiazole-4-carboxamide], under setting [1], the activation at 0.8 µM is 10 to 30%.
`CCCN(C(=O)c1csc(-c2ccc(-c3ccccc3)s2)n1)[C@H]1CCNC1` [Compound 69, 2-(5-phenylthiophen-2-yl)-N-propyl-N-[(3S)-pyrrolidin-3-yl]-1,3-thiazole-4-carboxamide]: under setting [1], the activation at 0.8 µM was 30 to 50%.
Consider `Cc1ccc(-n2cc(-c3nc(C(=O)N(C(C)C)C4CCNCC4)cs3)cn2)cc1` [Compound 57, 2-[1-(4-methylphenyl)-1H-pyrazol-4-yl]-N-(piperidin-4-yl)-N-(propan-2-yl)-1,3-thiazole-4-carboxamide], for which, under setting [1], the activation at 0.8 µM lay in the range of 30 to 50%.
Still for that read-out and setting: then `CC(C)N(C(=O)c1csc(-c2cnn(-c3ccccc3)c2)n1)[C@H]1[C@@H]2CNC[C@@H]21` [Compound 318, N-[(1R,5S,6S)-3-azabicyclo[3.1.0]hexan-6-yl]-2-(1-phenyl-1H-pyrazol-4-yl)-N-(propan-2-yl)-1,3-thiazole-4-carboxamide], with above 100%.
On to `CC(C)N(C(=O)c1csc(-c2cnn(-c3cccnn3)c2)n1)[C@@H]1CCNC1` [Compound 332, N-(propan-2-yl)-2-[1-(pyridazin-3-yl)-1H-pyrazol-4-yl]-N-[(3R)-pyrrolidin-3-yl]-1,3-thiazole-4-carboxamide], for which the “acidic vesicle formation relative to a DMSO-treated control” value (U20S cells, concentration of 10 μM, 24 hours) is “only a slight increase”. Further, the “increase in acidic vesicle formation” value (U20S cells, relative to DMSO-treated control (10 μM)) is on record as “only a slight increase”.
